In US9738634B2, “Heterocyclic amide compound and herbicide” (SYNGENTA PARTICIPATIONS AG, priority 2013, dated 2017):

Legend:
Type in all cases: in vivo
[1] = test system: soybean; assay: Test Example 3: soil treatment, effect on crop; d: soybean; conditions: treatment dosage 315 g/ha
Summary of the method: (§1)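 Crop and weed responses were judged three weeks after a uniform surface spray of the water-diluted emulsion at the given g/ha rate. Seeds sat beneath about 1.5 cm of sterilized diluvial soil, and boxes stood in a greenhouse at 25 to 30° C.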

[2] = test system: crabgrass; assay: Test Example 3: weedkilling efficacy through soil treatment; D: crabgrass; conditions: treatment dosage 315 g/ha
Summary of the method: as §1

[3] = test system: black-grass; assay: Test Example 3: weedkilling efficacy through soil treatment; H: black-grass; conditions: treatment dosage 315 g/ha
Summary of the method: as §1

[4] = test system: catchweed; assay: Test Example 4: weedkilling efficacy by foliar treatment; O: catchweed; conditions: treatment dosage 315 g/ha
Summary of the method: (§2)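 Seeds are spot-sown into sterilized diluvial soil and covered with about 1.5 cm of soil. After 14 days' greenhouse growth at 25 to 30° C, plants are sprayed on stems and leaves with diluted emulsion at the stated g/ha rate, then scored at 3 weeks.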

[5] = test system: oval-leafed pondweed; assay: Test Example 1: weedkilling efficacy, preemergent weed treatment in the submerged state; C: oval-leafed pondweed; conditions: treatment dosage 252 g/ha
Summary of the method: (§3)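 Emulsion diluted with water to the specified per-hectare dosage is applied onto flood water (4 cm) over alluvial soil on the sowing day, with barnyard grass, bulrush and pondweed seeded and rice (2.5-leaf) transplanted; plants grow at 25–30 °C and are rated at 3 weeks.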

[6] = test system: chickweed; assay: Test Example 4: weedkilling efficacy by foliar treatment; N: chickweed; conditions: treatment dosage 315 g/ha
Summary of the method: as §2

[7] = test system: bulrush; assay: Test Example 2: weedkilling efficacy, growth period weed treatment in the submerged state; B: bulrush; conditions: treatment dosage 252 g/ha
Summary of the method: (§4)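 First, alluvial soil in pots is flooded to 4 cm and mixed seed is sown. Next, plants grow in a greenhouse at 25 to 30° C until the 1-2 leaf stage. Then diluted emulsion is applied onto the water surface at the given g/ha rate, and injury is assessed after 3 weeks.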

[8] = test system: Indian mallow; assay: Test Example 4: weedkilling efficacy by foliar treatment; K: Indian mallow; conditions: treatment dosage 315 g/ha
Summary of the method: as §2

[9] = test system: fig-leafed goosefoot; assay: Test Example 3: weedkilling efficacy through soil treatment; M: fig-leafed goosefoot; conditions: treatment dosage 315 g/ha
Summary of the method: as §1

[10] = test system: bulrush; assay: Test Example 1: weedkilling efficacy, preemergent weed treatment in the submerged state; B: bulrush; conditions: treatment dosage 252 g/ha
Summary of the method: as §3

[11] = test system: redroot pigweed; assay: Test Example 4: weedkilling efficacy by foliar treatment; L: redroot pigweed; conditions: treatment dosage 315 g/ha
Summary of the method: as §2

[12] = test system: oval-leafed pondweed; assay: Test Example 2: weedkilling efficacy, growth period weed treatment in the submerged state; C: oval-leafed pondweed; conditions: treatment dosage 252 g/ha
Summary of the method: as §4

[13] = test system: crabgrass; assay: Test Example 4: weedkilling efficacy by foliar treatment; D: crabgrass; conditions: treatment dosage 315 g/ha
Summary of the method: as §2

[14] = test system: wheat; assay: Test Example 3: soil treatment, effect on crop; e: wheat; conditions: treatment dosage 315 g/ha
Summary of the method: as §1

[15] = test system: Italian ryegrass; assay: Test Example 4: weedkilling efficacy by foliar treatment; I: Italian ryegrass; conditions: treatment dosage 315 g/ha
Summary of the method: as §2

[16] = test system: barnyard grass; assay: Test Example 2: weedkilling efficacy, growth period weed treatment in the submerged state; A: barnyard grass; conditions: treatment dosage 252 g/ha
Summary of the method: as §4

[17] = test system: beet; assay: Test Example 3: soil treatment, effect on crop; f: beet; conditions: treatment dosage 315 g/ha
Summary of the method: as §1

[18] = test system: corn; assay: Test Example 3: soil treatment, effect on crop; c: corn; conditions: treatment dosage 315 g/ha
Summary of the method: as §1

[19] = test system: green foxtail; assay: Test Example 4: weedkilling efficacy by foliar treatment; E: green foxtail; conditions: treatment dosage 315 g/ha
Summary of the method: as §2

[20] = test system: wild oat; assay: Test Example 4: weedkilling efficacy by foliar treatment; G: wild oat; conditions: treatment dosage 315 g/ha
Summary of the method: as §2

[21] = test system: redroot pigweed; assay: Test Example 3: weedkilling efficacy through soil treatment; L: redroot pigweed; conditions: treatment dosage 315 g/ha
Summary of the method: as §1

[22] = test system: wild oat; assay: Test Example 3: weedkilling efficacy through soil treatment; G: wild oat; conditions: treatment dosage 315 g/ha
Summary of the method: as §1

[23] = test system: green foxtail; assay: Test Example 3: weedkilling efficacy through soil treatment; E: green foxtail; conditions: treatment dosage 315 g/ha
Summary of the method: as §1

[24] = test system: fig-leafed goosefoot; assay: Test Example 4: weedkilling efficacy by foliar treatment; M: fig-leafed goosefoot; conditions: treatment dosage 315 g/ha
Summary of the method: as §2

[25] = test system: directly sown rice; assay: Test Example 4: foliar treatment, effect on crop; b: directly sown rice; conditions: treatment dosage 315 g/ha
Summary of the method: as §2

[26] = test system: Italian ryegrass; assay: Test Example 3: weedkilling efficacy through soil treatment; I: Italian ryegrass; conditions: treatment dosage 315 g/ha
Summary of the method: as §1

[27] = test system: corn; assay: Test Example 4: foliar treatment, effect on crop; c: corn; conditions: treatment dosage 315 g/ha
Summary of the method: as §2

[28] = test system: barnyard grass; assay: Test Example 1: weedkilling efficacy, preemergent weed treatment in the submerged state; A: barnyard grass; conditions: treatment dosage 252 g/ha
Summary of the method: as §3

[29] = test system: wheat; assay: Test Example 4: foliar treatment, effect on crop; e: wheat; conditions: treatment dosage 315 g/ha
Summary of the method: as §2

[30] = test system: beet; assay: Test Example 4: foliar treatment, effect on crop; f: beet; conditions: treatment dosage 315 g/ha
Summary of the method: as §2

[31] = test system: birds-eye speedwell; assay: Test Example 4: weedkilling efficacy by foliar treatment; p: birds-eye speedwell; conditions: treatment dosage 315 g/ha
Summary of the method: as §2

[32] = test system: soybean; assay: Test Example 4: foliar treatment, effect on crop; d: soybean; conditions: treatment dosage 315 g/ha
Summary of the method: as §2

[33] = test system: transplanted rice; assay: Test Example 1: preemergent weed treatment in the submerged state, effect on crop; a: transplanted rice; conditions: treatment dosage 252 g/ha
Summary of the method: as §3

[34] = test system: Indian mallow; assay: Test Example 3: weedkilling efficacy through soil treatment; K: Indian mallow; conditions: treatment dosage 315 g/ha
Summary of the method: as §1

[35] = test system: chickweed; assay: Test Example 3: weedkilling efficacy through soil treatment; N: chickweed; conditions: treatment dosage 315 g/ha
Summary of the method: as §1

[36] = test system: black-grass; assay: Test Example 4: weedkilling efficacy by foliar treatment; H: black-grass; conditions: treatment dosage 315 g/ha
Summary of the method: as §2

SMILES	d (soybean) effect on crop grade [1]	D (crabgrass) weedkilling efficacy grade [2]	H (black-grass) weedkilling efficacy grade [3]	O (catchweed) weedkilling efficacy grade [4]	C (oval-leafed pondweed) weedkilling efficacy grade [5]	N (chickweed) weedkilling efficacy grade [6]	B (bulrush) weedkilling efficacy grade [7]	K (Indian mallow) weedkilling efficacy grade [8]	M (fig-leafed goosefoot) weedkilling efficacy grade [9]	B (bulrush) weedkilling efficacy grade [10]	L (redroot pigweed) weedkilling efficacy grade [11]	C (oval-leafed pondweed) weedkilling efficacy grade [12]	D (crabgrass) weedkilling efficacy grade [13]	e (wheat) effect on crop grade [14]	I (Italian ryegrass) weedkilling efficacy grade [15]	A (barnyard grass) weedkilling efficacy grade [16]	f (beet) effect on crop grade [17]	c (corn) effect on crop grade [18]	E (green foxtail) weedkilling efficacy grade [19]	G (wild oat) weedkilling efficacy grade [20]	further results
CC1=C(c2ccccc2)C(=O)N(C(C)(C)C(=O)Nc2ccnc(Cl)c2)CO1 [B-4-03]	3 (weed kill ratio 40% or more, less than 70%)	5 (weed kill ratio 90% or more, (practically complete withering))	5 (weed kill ratio 90% or more, (practically complete withering))	5 (weed kill ratio 90% or more, (practically complete withering))	5 (weed kill ratio 90% or more, (practically complete withering))	1 (weed kill ratio 5% or more, less than 20%)	5 (weed kill ratio 90% or more, (practically complete withering))	4 (weed kill ratio 70% or more, less than 90%)	5 (weed kill ratio 90% or more, (practically complete withering))	5 (weed kill ratio 90% or more, (practically complete withering))	3 (weed kill ratio 40% or more, less than 70%)	4 (weed kill ratio 70% or more, less than 90%)	5 (weed kill ratio 90% or more, (practically complete withering))	1 (weed kill ratio 5% or more, less than 20%)	5 (weed kill ratio 90% or more, (practically complete withering))	4 (weed kill ratio 70% or more, less than 90%)	4 (weed kill ratio 70% or more, less than 90%)	2 (weed kill ratio 20% or more, less than 40%)	5 (weed kill ratio 90% or more, (practically complete withering))	5 (weed kill ratio 90% or more, (practically complete withering))	L (redroot pigweed) weedkilling efficacy grade [21]: 5 (weed kill ratio 90% or more, (practically complete withering)); G (wild oat) weedkilling efficacy grade [22]: 4 (weed kill ratio 70% or more, less than 90%); E (green foxtail) weedkilling efficacy grade [23]: 5 (weed kill ratio 90% or more, (practically complete withering)); M (fig-leafed goosefoot) weedkilling efficacy grade [24]: 3 (weed kill ratio 40% or more, less than 70%); b (directly sown rice) effect on crop grade [25]: 5 (weed kill ratio 90% or more, (practically complete withering)); I (Italian ryegrass) weedkilling efficacy grade [26]: 5 (weed kill ratio 90% or more, (practically complete withering)); c (corn) effect on crop grade [27]: 4 (weed kill ratio 70% or more, less than 90%); A (barnyard grass) weedkilling efficacy grade [28]: 5 (weed kill ratio 90% or more, (practically complete withering)); e (wheat) effect on crop grade [29]: 0 (weed kill ratio 5% or less (practically no effect)); f (beet) effect on crop grade [30]: 4 (weed kill ratio 70% or more, less than 90%); P (birds-eye speedwell) weedkilling efficacy grade [31]: 4 (weed kill ratio 70% or more, less than 90%); d (soybean) effect on crop grade [32]: 4 (weed kill ratio 70% or more, less than 90%); a (transplanted rice) effect on crop grade [33]: 4 (weed kill ratio 70% or more, less than 90%); K (Indian mallow) weedkilling efficacy grade [34]: 3 (weed kill ratio 40% or more, less than 70%); N (chickweed) weedkilling efficacy grade [35]: 3 (weed kill ratio 40% or more, less than 70%); H (black-grass) weedkilling efficacy grade [36]: 5 (weed kill ratio 90% or more, (practically complete withering))
CC1=C(c2ccccc2)C(=O)N(C(C)(C)C(=O)Nc2cncc(Cl)c2)CO1 [B-3-02]	0 (weed kill ratio 5% or less (practically no effect))	5 (weed kill ratio 90% or more, (practically complete withering))	5 (weed kill ratio 90% or more, (practically complete withering))	4 (weed kill ratio 70% or more, less than 90%)	5 (weed kill ratio 90% or more, (practically complete withering))	0 (weed kill ratio 5% or less (practically no effect))	5 (weed kill ratio 90% or more, (practically complete withering))	4 (weed kill ratio 70% or more, less than 90%)	4 (weed kill ratio 70% or more, less than 90%)	5 (weed kill ratio 90% or more, (practically complete withering))	3 (weed kill ratio 40% or more, less than 70%)	5 (weed kill ratio 90% or more, (practically complete withering))	5 (weed kill ratio 90% or more, (practically complete withering))	5 (weed kill ratio 90% or more, (practically complete withering))	5 (weed kill ratio 90% or more, (practically complete withering))	4 (weed kill ratio 70% or more, less than 90%)	4 (weed kill ratio 70% or more, less than 90%)	3 (weed kill ratio 40% or more, less than 70%)	5 (weed kill ratio 90% or more, (practically complete withering))	5 (weed kill ratio 90% or more, (practically complete withering))	L (redroot pigweed) weedkilling efficacy grade [21]: 5 (weed kill ratio 90% or more, (practically complete withering)); G (wild oat) weedkilling efficacy grade [22]: 5 (weed kill ratio 90% or more, (practically complete withering)); E (green foxtail) weedkilling efficacy grade [23]: 5 (weed kill ratio 90% or more, (practically complete withering)); M (fig-leafed goosefoot) weedkilling efficacy grade [24]: 2 (weed kill ratio 20% or more, less than 40%); b (directly sown rice) effect on crop grade [25]: 5 (weed kill ratio 90% or more, (practically complete withering)); I (Italian ryegrass) weedkilling efficacy grade [26]: 5 (weed kill ratio 90% or more, (practically complete withering)); c (corn) effect on crop grade [27]: 4 (weed kill ratio 70% or more, less than 90%); A (barnyard grass) weedkilling efficacy grade [28]: 5 (weed kill ratio 90% or more, (practically complete withering)); e (wheat) effect on crop grade [29]: 3 (weed kill ratio 40% or more, less than 70%); f (beet) effect on crop grade [30]: 3 (weed kill ratio 40% or more, less than 70%); P (birds-eye speedwell) weedkilling efficacy grade [31]: 3 (weed kill ratio 40% or more, less than 70%); d (soybean) effect on crop grade [32]: 4 (weed kill ratio 70% or more, less than 90%); a (transplanted rice) effect on crop grade [33]: 3 (weed kill ratio 40% or more, less than 70%); K (Indian mallow) weedkilling efficacy grade [34]: 3 (weed kill ratio 40% or more, less than 70%); N (chickweed) weedkilling efficacy grade [35]: 4 (weed kill ratio 70% or more, less than 90%); H (black-grass) weedkilling efficacy grade [36]: 5 (weed kill ratio 90% or more, (practically complete withering))
